Patent US20120184625A1, “METHODS AND COMPOSITIONS FOR CONTROLLING PESTS” (priority 2001, published 2012)

Tests used:
[1] = tested on: Two spotted mite (TSM) Tetranychus urticae Koch; assay: TSM leaf disc bioassay, Potter spray tower; assay type: in vivo; set-up: LD50 and 95% CL: unit not given beside the values; conditions: for LD50 and 95% CL: in vivo
Method: Two spotted mite (TSM) Tetranychus urticae Koch [Acarina: Tetranychidae] were collected from a mass culture maintained at the University of Western Sydney's Hawkesbury Campus in Richmond, NSW, Australia. They were reared on potted French beans (Phaseolus vulgaris L [Fabales: Fabaceae] in a glasshouse maintained at 25±5° C., 65±5% RH and 14 h D:L photoperiod. Only young females were selected for bioassay.
From an E. cloeziana oil extract (containing 85% tasmanone), 1.1765 g was dissolved in 5 mL ethyl alcohol and distilled water containing 200 ppm Triton X-100™ was added to prepare a 1% stock solution. From this homogenised stock solution, further serial dilutions of 0.0125, 0.025, 0.05, 0.10, and 0.12% were prepared by mixing the required amount of stock solution in distilled water and Triton X-100 solution. Each treatment was conducted on 60-80 TSM, which were evenly distributed on four French bean leaf discs (25 mm diam) contained in 90 mm diam. petri dishes. The leaf discs were placed with their underside uppermost on moist absorbent cotton wool covered with muslin netting. Water was added to the dishes daily to prevent desiccation of the leaf discs. Five mL aliquots (unless otherwise stated) were applied to each petri dish with a Potter precision spray tower as described by Herron et al (1995). The average mass of solution applied to each dish was calculated to be 3.95 mg/cm^2. Mortality was recorded 24 h after treatment. Death was recognised by the absence of movement when the test organisms were mechanically stimulated. Data were analysed using SPSS for Windows™ Version 7. Probit analysis was carried out for dose-mortality data and heterogeneity of regressions was determined by the Pearson chi-squared characteristic.
In addition, TSM was treated with E. cloeziana oil extract in combination with paraffin oil. In particular, E. cloeziana oil extract at levels of 0.1, 0.2, 0.3, 0.4 and 0.5 g were weighed out and each was made up to a weight of 10.0 g with a formulated paraffin oil (BioPest®), which was then sonicated for 10 min. A 1.0% v/v of each blend was prepared by mixing 1.0 mL with distilled water in a 100.0 mL volumetric flask. TSM were transferred to the petri dish following the same standard method. Five-mL aliquots were applied to each petri dish and mortality was recorded 24 h after treatment. All blends of E. cloeziana oil extract with paraffin oil produced 100.0% mortality, compared with Biopest® alone which caused only 35.5±6.9 mortality.
The efficacy of purified β-triketones against TSM was investigated using the TSM bioassay described in Example 8.

[2] = tested on: greenhouse thrips (GHT), Heliothrips haemorrhoidalis Bouché; assay: Greenhouse thrips bioassay on lemon leaf discs, Potter spray tower; assay type: in vivo
Method: Adult parthenogenetic female greenhouse thrips (GHT), Heliothrips haemorrhoidalis Bouché (Thysanoptera: Thripidae) of similar age were obtained from a colony reared on orange fruits and maintained in an insectary at UWS Hawkesbury under conditions of 25±3° C., 65% RH and 16 h D:L photoperiod
The same experimental procedure used for TSM was repeated for GHT except that lemon leaf discs were used instead of French beans. The required number of adult thrips for each treatment was transferred with a fine brush to the underside of a lemon disc of the same diameter (6 cm) as the base of a petri dish. The lemon disc was mounted on agar with its adaxial side uppermost. Immediately after treatment the petri dish was covered with perforated plastic wrap. […]
The efficacy of purified β-triketones against GHT was investigated using the GHT bioassay described in Example 8.
All β-triketones except jensenone caused 100% mortality on GHT at a concentration of 0.3% when 5 mL aliquots were applied with a Potter spray tower.

`COC1=CC(=O)C(C(C)=O)C(=O)C1(C)C` (stereo not drawn) [Platyphyllol, 6,6-dimethyl-2-acetyl-5-methoxycyclohex-4-ene-1,3-dione] was tested. Which “LD50 and 95% CL” value [1] did it give?
The value was 0.070.

Which “LD50 and 95% CL” value [1] does the source give for `CC(=O)C1=C(O)C(C)(C)C=C(C)C1=O` [Dehydroangustione, 1-acetyl-3,5,5-trimethylcyclohex-3-en-2,6-dione] here?
The value was 0.36 (0.33-0.41).

Which “LD50 and 95% CL” value [1] does the source give for `CC(=O)C1=C(O)C(C)CC(C)(C)C1=O` (stereo not drawn) [Angustione, 1-acetyl-3,5,5-trimethylcyclohex-2,6-dione] here?
Its value is 0.22 (0.21-0.24).

With `CC(C)CC(=O)C1C(=O)C(C=O)C(=O)C(C=O)C1=O` (stereo not drawn) [Jensenone] as the molecule, how does the mortality ([2]; 72 h after application in the 0.4% treatment) read?
The mortality was 60.0%.

And the behavioural effects ([2]; all concentrations tested)?
The behavioural effects was “Convulsion and lack of movement”.

What about the “direct mortality within 24 h” value ([2]; all concentrations tested) of the same molecule?
Its value is “did not cause direct mortality”.

What about the “behavioural effect on treated TSM” value ([1]; TSM, 0.05-0.4%) of the same molecule?
The value was “to move normally and continued to convulse”.

What about the “recovery of treated TSM” value ([1]; TSM, 0.05-0.4%) of the same molecule?
Its value is “treatment. There was no recovery”.

And the “time after treatment at which TSM commenced to die” value ([1]; TSM, 0.05-0.4%)?
The value was “until they commenced to die 72 h after”.

And the “direct mortality within 24 h” value ([1]; TSM, any concentration tested (0.05-0.4%))?
The value was “No direct mortality occurred in any”.

How did the “LD50 and 95% CL” value [1] turn out when `CC1(C)C(=O)C(CCc2ccccc2)C(=O)C(C)(C)C1=O` [Grandiflorone, 1-(2-phenylethyl)-3,3,5,5-tetramethylcyclohexan-2,4,6-trione] was run?
The value was 0.04.

With `COC1=C(C)C(=O)C(C(=O)C(C)C)C(=O)C1(C)C` (stereo not drawn) [Tasmanone, 1-isobutroyl-4-methoxy-3,5,5-trimethylcyclohex-3-en-2,6-dione] as the molecule, how does the “LD50 and 95% CL” value [1] read?
Its value is 0.055.
